Results published in US9382257B2, “Substituted pyrrolo[2,3-b]pyrazines as serine/threonine kinase inhibitors” (Genentech, Inc., priority 2002, dated 2016).

These compounds were tested against T1, human ERK-2 (Homo sapiens, UniProt P28482) (assay: Labchip Kinase ERK Assay (Example 3)). Details: LabChip Erk Assay (footnote 2), 25 μM ATP, Caliper LabChip 3000; read-out: ERK Inhibition IC50.
T1 construct: n-terminal 6-His fusion protein in E. coli and corresponding to aa 8-360; 6-His (N); made in house; host or cells: E. coli
T1 sequence (P28482 8-360): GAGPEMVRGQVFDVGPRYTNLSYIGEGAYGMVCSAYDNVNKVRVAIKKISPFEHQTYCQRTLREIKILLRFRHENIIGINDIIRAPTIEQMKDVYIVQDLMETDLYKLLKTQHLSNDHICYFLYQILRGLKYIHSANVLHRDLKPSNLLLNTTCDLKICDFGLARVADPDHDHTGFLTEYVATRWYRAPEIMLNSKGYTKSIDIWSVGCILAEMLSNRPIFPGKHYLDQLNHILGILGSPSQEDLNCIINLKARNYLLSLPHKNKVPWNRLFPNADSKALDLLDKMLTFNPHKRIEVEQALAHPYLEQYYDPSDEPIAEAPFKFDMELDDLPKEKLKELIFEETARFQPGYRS
Type: biochemical
Protocol: Compounds were tested in an enzymatic assay using human ERK-2 recombinantly expressed as an n-terminal 6-His fusion protein in E. coli and corresponding to aa 8-360. The substrate used was 5FAM-IPTSPITTTYFFFKKK-COOH (Caliper cat #760352). Test compounds were diluted in DMSO in 3-fold serial dilutions at 100× final concentrations. […] The assay was run at ambient temperature in a white 384-well polypropylene plate (Nunc, Inc of Naperville, Ill.; Cat. 267462) for 60 minutes then stopped by addition of EDTA. Percent substrate phosphorylated was determined by microfluidic separation using a Caliper LabChip 3000 instrument. Percent inhibition was plotted against compound concentration and IC50 values were determined using a four-parameter fit.

Structure (SMILES) | IC50 [µM]
Cc1cc(-c2c[nH]c3ncc(-c4ccncc4)nc23)cnc1F [II-1, 7-(6-fluoro-5-methyl-pyridin-3-yl)-2-pyridin-4-yl-5H-pyrrolo[2,3-b]pyrazine] | 0.0531
Cc1nn(C)c(C)c1-c1cnc2[nH]cc(-c3cnn(Cc4ccccc4)c3)c2n1 [I-13, 7-(1-benzyl-1H-pyrazol-4-yl)-2-(1,3,5-trimethyl-1H-pyrazol-4-yl)-5H-pyrrolo[2,3-b]pyrazine] | 0.105
c1cncc(Cn2cc(-c3c[nH]c4ncc(-c5ccncc5)nc34)cn2)c1 [I-23, 2-pyridin-4-yl-7-(1-pyridin-3-ylmethyl-1H-pyrazol-4-yl)-5H-pyrrolo[2,3-b]pyrazine] | 0.0658
Cc1cc(-c2c[nH]c3ncc(-c4ccncc4)nc23)cnc1Cl [II-6, 7-(6-chloro-5-methyl-pyridin-3-yl)-2-pyridin-4-yl-5H-pyrrolo[2,3-b]pyrazine] | 0.0478

Other lines, results leading:

IC50 [µM] | Structure (SMILES)
0.343 | c1ccc(Cn2cc(-c3c[nH]c4ncc(-c5ccc6cn[nH]c6c5)nc34)cn2)cc1 [I-19, 7-(1-benzyl-1H-pyrazol-4-yl)-2-(1H-indazol-6-yl)-5H-pyrrolo[2,3-b]pyrazine]
0.0149 | Cc1[nH]ncc1-c1cnc2[nH]cc(-c3cnn(Cc4cccc(OC(F)(F)F)c4)c3)c2n1 [I-22, 2-(5-methyl-1H-pyrazol-4-yl)-7-[1-(3-trifluoromethoxy-benzyl)-1H-pyrazol-4-yl]-5H-pyrrolo[2,3-b]pyrazine]
0.0221 | Cc1cc(-c2cnc3[nH]cc(-c4cnn(Cc5cccc(F)c5)c4)c3n2)ccn1 [I-12, 7-[1-(3-fluoro-benzyl)-1H-pyrazol-4-yl]-2-(2-methyl-pyridin-4-yl)-5H-pyrrolo[2,3-b]pyrazine]
0.11 | Cc1noc(C)c1-c1cnc2[nH]cc(-c3cnn(Cc4ccccc4)c3)c2n1 [I-14, 7-(1-benzyl-1H-pyrazol-4-yl)-2-(3,5-dimethyl-isoxazol-4-yl)-5H-pyrrolo[2,3-b]pyrazine]
